Results reported in article PMC7060258 (Scientific Reports, 2020).
No end group written: not given here.

Key:
trypsin [1] = test: Thermodynamic parameters of complexes with trypsin; format: binding; conditions: complex with trypsin, SPR
Method: (§1) The magnitudes of free energy change (∆G) of the complexes differed slightly from the same complexes of HCRG1 and HCRG2 and were lower than for the InhVJ ones.
The study of the interaction of serine proteinases with rHCIQ2c1 and rHCIQ4c7 was performed on SPR biosensor Biacore 3000 (GE Healthcare, USA) running under the program “Biacore 3000 Control Software v.1.0”. The evaluation of data was carried out using “Biacore Evaluation v.4.1”. Peptides were covalent immobilized on carboxymethylated surface of the Biacore CM4 sensor chip (GE Healthcare, USA) activated by EDC/NHS (N-hydroxysuccinimide/1-ethyl-3-(3-dimethylaminopropyl)carbodiimide hydrochloride) mixture by the injection of peptide solution (100 µg/ml) in 10 mM sodium acetate (pH 5.5) during 10 min with flow rate 5 µl/min. Quantities of immobilized peptides were 970 RU (resonance units, 1 RU corresponds 1 pg peptide) for rHCIQ2c1 and 460 RU for rHCIQ4c7. In all of the experiments, the flow cell 1 (Fc1) without the immobilized polypeptides was considered as the reference cell for the correction of the signal responses. […] Further complex breakdown was recorded during at most 10 min. […] Changes in enthalpy (ΔH) and entropic term (−TΔS) were calculated from the linear equation:2 ΔG=ΔH−TΔS, using the liner approximation of temperature dependence of ΔG (Van’t Hoff diagram).

α-chymotrypsin = test: Thermodynamic parameters of complexes with α-chymotrypsin; format: binding; conditions: complex with α-chymotrypsin, SPR
Method: as §1
The study of the interaction of serine proteinases with rHCIQ2c1 and rHCIQ4c7 was performed on SPR biosensor Biacore 3000 (GE Healthcare, USA) running under the program “Biacore 3000 Control Software v.1.0”. The evaluation of data was carried out using “Biacore Evaluation v.4.1”. Peptides were covalent immobilized on carboxymethylated surface of the Biacore CM4 sensor chip (GE Healthcare, USA) activated by EDC/NHS (N-hydroxysuccinimide/1-ethyl-3-(3-dimethylaminopropyl)carbodiimide hydrochloride) mixture by the injection of peptide solution (100 µg/ml) in 10 mM sodium acetate (pH 5.5) during 10 min with flow rate 5 µl/min. Quantities of immobilized peptides were 970 RU (resonance units, 1 RU corresponds 1 pg peptide) for rHCIQ2c1 and 460 RU for rHCIQ4c7. In all of the experiments, the flow cell 1 (Fc1) without the immobilized polypeptides was considered as the reference cell for the correction of the signal responses. HBS (HEPES buffered saline-NaCl): 0.15 M NaCl, 0.01 M HEPES, pH 7.4 (cat. no. BR-1003-69, GE Healthcare, USA) was used as the running buffer for the SPR assays. Protease solutions at concentrations from 1 nM to 5 μM were passed through measuring and control biosensor cells at 25 °C during 5 min with a flow rate 5 µl/min. Further complex breakdown was recorded during at most 10 min. After each cycle of SPR measurement, the sensing surface was regenerated by the injection of 50 mM NaOH for 0.5 min at a flow rate of 50 μl/min. Changes in Gibbs free energy (ΔG) at 25 °C were calculated by the following equation:1 ΔG=RTlnKD, where KD is the dissociation constant. Changes in enthalpy (ΔH) and entropic term (−TΔS) were calculated from the linear equation:2 ΔG=ΔH−TΔS, using the liner approximation of temperature dependence of ΔG (Van’t Hoff diagram).

trypsin [2] = test: Trypsin inhibitory activity (BAPNA, Dixon); format: biochemical; conditions: BAPNA 0.6 and 1.2 mM, Dixon method; trypsin 208 nM; peptide 0–26.6 µM (rHCIQ2c1), 0–24 µM (rHCIQ4c7); three parallel experiments; error limits 0.1–0.5%
Method: The trypsin inhibitory activity of HCIQ peptides was estimated according to the standard procedure using N-α-benzoyl-D,L-arginine p-nitroanilide (BAPNA) as a substrate. The trypsin inhibition constants of rHCIQ2c1 and rHCIQ4c7 were determined by the method of Dixon[74] using substrate (BAPNA) concentrations of 0.6 and 1.2 mM. The trypsin concentration in the reaction mixture was 208 nM. The range of peptide concentrations was 0–26.6 µM for rHCIQ2c1 and 0–24 µM for rHCIQ4c7. The constants (Ki) were calculated based on the results of three parallel experiments. Computational error limits were in the range of 0.1–0.5%.

Substance	∆H, enthalpy change (trypsin [1]; 10–40 °С, Van't Hoff diagram) [kcal/mol]	∆G, Gibbs energy change (trypsin [1]; 25 °C, ΔG=RTlnKD)	T∆S, entropic term (α-chymotrypsin; 10–40 °С, Van't Hoff diagram) [kcal/mol]	∆H, enthalpy change (α-chymotrypsin; 10–40 °С, Van't Hoff diagram) [kcal/mol]	∆G, Gibbs energy change (α-chymotrypsin; 25 °C, ΔG=RTlnKD)	Ki (trypsin [2]) [nM]
rHCIQ2c1: recombinant Kunitz-peptide of Heteractis crispa, most prevalent isoform, mature peptide 58 aa, expressed in E. coli (IQGNICSEPKKVGRCRGSFPRFYFDSETGKCTPFIYGGCGGNGNNFETLHACRAICRA; ends and bridges not checked; cysteine pairing not given here)	17.28	–54.70 kJ/mol	15.12	4.68	–43.70 kJ/mol	–
rHCIQ4c7: recombinant Kunitz-peptide of Heteractis crispa, isoform with the rare substitution Gly17Glu	–	–	–	–	–	190
